From publication PMC6556873, “Rapid Covalent-Probe Discovery by Electrophile-Fragment Screening” (Journal of the American Chemical Society, 2019)
Read-outs that look alike come from different tables or passages of the source.

How the values were obtained:
in vitro [1] = assay: in vitro; set-up: species or system CCD841, HEK293; conditions: human, hb2 cells, read-out: HB-2 Cells Viability (%)
OTUB2 (OTUB2A) = molecular target: T1, OTUB2 (OTUB2A) (Homo sapiens, UniProt Q96DC9); set-up: Intact protein LC/MS covalent labelling, fragments in pools of five, 200 uM each, 4 °C; conditions: 24 h, 4 °C, pool of five; 200 µM; covalent
T1 construct: full length residues 1-234, E. coli BL21(DE3)-R3, His tag removed by TEV, construct 27312 Da
T1 sequence (Q96DC9 1-234): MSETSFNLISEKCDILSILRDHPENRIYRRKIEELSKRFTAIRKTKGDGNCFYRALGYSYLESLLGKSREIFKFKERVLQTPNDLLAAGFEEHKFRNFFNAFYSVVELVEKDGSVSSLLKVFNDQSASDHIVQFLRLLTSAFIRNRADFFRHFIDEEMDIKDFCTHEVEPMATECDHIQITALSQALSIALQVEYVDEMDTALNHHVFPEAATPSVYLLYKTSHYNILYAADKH

BSA = molecular target: T2, BSA (Bos taurus, UniProt P02769); set-up: Intact protein LC/MS covalent labelling, fragments in pools of five, 200 uM each, 4 °C; conditions: 24 h, 4 °C, pool of five; 200 µM; covalent
T2 construct: gene ALB
T2 sequence (P02769 whole entry, the tested form may be a part): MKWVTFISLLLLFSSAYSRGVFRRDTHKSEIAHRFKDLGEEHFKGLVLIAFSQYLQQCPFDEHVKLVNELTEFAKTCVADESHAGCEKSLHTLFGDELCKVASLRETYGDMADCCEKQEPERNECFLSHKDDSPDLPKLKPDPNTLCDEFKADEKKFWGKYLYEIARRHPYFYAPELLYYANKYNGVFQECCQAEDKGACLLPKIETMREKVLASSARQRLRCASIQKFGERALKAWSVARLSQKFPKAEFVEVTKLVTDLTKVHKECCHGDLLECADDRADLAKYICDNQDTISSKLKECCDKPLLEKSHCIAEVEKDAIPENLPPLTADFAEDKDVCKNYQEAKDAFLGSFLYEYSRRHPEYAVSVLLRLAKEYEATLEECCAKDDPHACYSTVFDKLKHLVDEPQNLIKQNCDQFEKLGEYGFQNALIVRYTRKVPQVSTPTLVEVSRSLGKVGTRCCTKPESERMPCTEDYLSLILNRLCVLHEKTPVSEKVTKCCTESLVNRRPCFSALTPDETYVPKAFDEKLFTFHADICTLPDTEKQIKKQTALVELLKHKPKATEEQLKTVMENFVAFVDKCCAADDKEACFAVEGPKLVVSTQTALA

NUDT7 = molecular target: T3, NUDT7 (Homo sapiens, UniProt P0C024); set-up: Intact protein LC/MS covalent labelling, fragments in pools of five, 200 uM each, 4 °C; conditions: 24 h, 4 °C, pool of five; 200 µM; covalent
T3 construct: residues 14-235, E. coli, pNIC28-Bsa4, N-terminal His6 tag removed by TEV, construct 26672 Da
T3 sequence (P0C024 14-235): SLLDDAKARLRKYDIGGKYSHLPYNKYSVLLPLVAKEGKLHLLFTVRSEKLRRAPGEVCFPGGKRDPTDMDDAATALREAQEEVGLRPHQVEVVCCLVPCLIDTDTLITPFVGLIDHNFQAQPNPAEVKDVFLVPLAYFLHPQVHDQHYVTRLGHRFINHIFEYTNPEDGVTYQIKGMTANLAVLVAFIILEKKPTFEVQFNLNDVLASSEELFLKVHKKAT

PCAF = molecular target: T4, PCAF (Homo sapiens, UniProt Q92831); set-up: Intact protein LC/MS covalent labelling, fragments in pools of five, 200 uM each, 4 °C; conditions: 24 h, 4 °C, pool of five; 200 µM; covalent
T4 construct: gene KAT2B
T4 sequence (Q92831 whole entry, the tested form may be a part): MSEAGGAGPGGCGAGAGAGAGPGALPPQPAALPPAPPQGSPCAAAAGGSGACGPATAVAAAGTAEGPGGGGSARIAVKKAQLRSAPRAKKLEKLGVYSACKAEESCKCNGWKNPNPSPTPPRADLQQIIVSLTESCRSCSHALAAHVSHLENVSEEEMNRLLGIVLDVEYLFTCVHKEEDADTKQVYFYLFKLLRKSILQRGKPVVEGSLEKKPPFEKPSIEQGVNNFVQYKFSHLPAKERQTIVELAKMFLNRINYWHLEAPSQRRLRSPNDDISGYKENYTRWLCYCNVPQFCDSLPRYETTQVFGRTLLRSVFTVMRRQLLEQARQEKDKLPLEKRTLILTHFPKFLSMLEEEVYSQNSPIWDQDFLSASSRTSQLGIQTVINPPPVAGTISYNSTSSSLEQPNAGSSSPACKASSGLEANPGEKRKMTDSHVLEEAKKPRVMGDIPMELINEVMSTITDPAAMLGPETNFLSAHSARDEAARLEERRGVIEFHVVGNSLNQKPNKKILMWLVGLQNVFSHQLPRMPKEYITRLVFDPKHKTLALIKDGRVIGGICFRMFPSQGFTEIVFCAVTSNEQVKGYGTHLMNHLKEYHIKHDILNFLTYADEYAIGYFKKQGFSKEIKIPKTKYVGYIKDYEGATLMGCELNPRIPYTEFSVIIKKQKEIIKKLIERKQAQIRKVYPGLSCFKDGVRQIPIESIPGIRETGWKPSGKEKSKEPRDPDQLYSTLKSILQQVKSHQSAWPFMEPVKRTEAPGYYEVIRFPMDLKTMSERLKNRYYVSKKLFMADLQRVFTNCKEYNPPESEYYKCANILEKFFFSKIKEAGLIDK

in vitro [2] = assay: in vitro; set-up: species or system HB2, HEK293; conditions: human, ccd841 cells
in vitro [3] = assay: in vitro; set-up: species or system HB2, CCD841; conditions: human, hek293 cells

Row | SMILES | viability at 48 h, 10 µM (in vitro [1]) [%] | OTUB2 (OTUB2 (OTUB2A)) | BSA (BSA) | NUDT7 (NUDT7) | PCAF (PCAF) | viability at 48 h, 10 µM (in vitro [2]) [%] | viability at 48 h, 10 µM (in vitro [3]) [%]
1 | C=CC(=O)NCC1(O)CCS(=O)(=O)CC1 [PCM-0102691] | 104 | 0.2 | 0 | 0 | 0 | 104 | 103
2 | O=C(CCl)N1CCCC1c1ccsc1 (stereo not drawn) [PCM-0102693] | 11.7 | 0 | 0 | 0.2 | 0 | 37.7 | 4.6
3 | O=C(CCl)NC(=O)c1cccc2ccccc12 [PCM-0102694] | 101 | 0 | 0 | 0 | 0 | 112 | 111
4 | C=CC(=O)Nc1nc2ccccc2s1 [PCM-0102695] | 33.8 | 0 | 0 | 0.18 | 0 | 50.3 | 51.9
5 | O=C(CCl)Nc1cccc(C(=O)O)c1 [PCM-0102696] | 90.3 | 0.11 | 0 | 0 | 0 | 86.9 | 84.6
6 | CC1CC(=O)Nc2ccccc2N1C(=O)CCl (stereo not drawn) [PCM-0102697] | 83.7 | 0 | 0 | 0.22 | 0 | 62.6 | 52.8
7 | O=C(CCl)Nc1nc2ccccc2s1 [PCM-0102698] | 64.2 | 0.07 | 0 | 0.83 | 0 | 77.5 | 65.6
8 | Cc1cc(NC(=O)CCl)n(-c2ccccc2C)n1 [PCM-0102699] | 58.9 | 0 | 0 | 0 | 0 | 81.6 | 36.9
9 | N#Cc1ccc(Cl)cc1NC(=O)CCl [PCM-0102700] | 57.6 | 0.17 | 0 | 0.4 | 0 | 68.1 | 64.8
10 | C=CC(=O)N1CCC(S(=O)(=O)N2CCCC2)C1 (stereo not drawn) [PCM-0102701] | 97.8 | 0 | 0.12 | 0 | 0 | 95.6 | 85.2
11 | CCCNC(=O)NC(=O)CCl [PCM-0102702] | 91.6 | 0.22 | 0 | 0 | 0 | 91.6 | 82.9
12 | CN(C(=O)CCl)C1CCCc2ccccc21 (stereo not drawn) [PCM-0102703] | 6.6 | 0 | 0 | 0.3 | 0 | 25.8 | 5.8
13 | O=C(CCl)N1CCN(S(=O)(=O)c2ccc(Cl)cc2)CC1 [PCM-0102704] | 2.5 | 0 | 0 | 0.25 | 0 | 18.8 | 2.7
14 | O=C(CCl)N1CCc2cc(S(=O)(=O)N3CCCCC3)ccc21 [PCM-0102705] | 4.2 | 0 | 0 | 0 | 0 | 28.8 | 51.1
15 | O=C(CCl)NCC12CC3CC(CC(C3)C1)C2 [PCM-0102706] | 61.3 | 0.65 | 0 | 0 | 0 | 76.1 | 40.8
